83 compounds from PubChem BioAssay AID743394 (Broad Institute, 2014) can be followed below.

Calls of active or inactive are those of the source.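 Rule for the calls: active = 40% activation versus positive control reached by fitted dose-response curve at or below highest valid tested dose; inconclusive = poor fit quality, or flat fit with activation between 30% and 70%; inactive = the rest.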 Where only a bound is given, the exact number is not on record here.

In the first experiment the test system is 68-5-11 mouse fibroblast XiGFP reporter, % GFP-positive imaging, 3 d. Briefly: inactive X chromosome reactivation in XiGFP fibroblasts, dose response, imaging, 68-5-11 mouse fibroblasts, GFP, cherry-pick (AID 743394).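 Note: sensitizer 5-aza-dC present in the wells at 0.5 mM final.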 Particulars: cells co-treated with 5-aza-dC sensitizer.
With `Cc1nnc(N2C(=O)c3cccc4c([N+](=O)[O-])ccc(c34)C2=O)s1`, the AC40 is > 19500 nM (inactive). The same measure, in the same setting: the result for `CC(=O)Nc1cc2c3c(cccc3c1)-c1ccccc1-2` reads 2560 nM; that for `CCN1/C(=C\c2ccc3ccccc3[n+]2CC)Sc2cc(C)ccc21`, 668 nM; that for `Cc1ccc2c(c1)c(/C=C/c1cc[n+](C)cc1)c(C)n2C`, 2650 nM. Turning to `N#C/C(=C/c1ccc(N2CCCCC2)o1)C(=O)NCCc1c[nH]c2ccccc12`, the AC40 is 4770 nM.

On to `Cc1ccc(NC(=O)/C=C/c2ccc([N+](=O)[O-])s2)cc1`, for which the AC40 was 3110 nM. Same read-out and setting: under `CCCN1CCN(C(=O)C2CCN(c3nnc(C)c4c(C)n(-c5ccc(C)cc5)nc34)CC2)CC1` stands 8700 nM; under `Cc1cc(N/N=C/c2ccc([N+](=O)[O-])o2)nc2ccccc12`, 8400 nM; under `N#C/C(=C/c1ccc(N2CCCCC2)o1)C(=O)Nc1ccc2ccccc2c1`, 297 nM. On to `CC[n+]1c(/C=C/C=C/N(C(C)=O)c2ccccc2)sc2cc(OC)ccc21`, for which the AC40 was 1160 nM. As for `O=[N+]([O-])c1c(Nc2ccc(O)cc2)cc(Cl)c2nonc12`, the AC40 is 8920 nM. On the same count and under the same terms, under `CC(=O)Nc1sc(/C(C#N)=C/c2ccc(Cl)c(Cl)c2)nc1-c1ccc(C)cc1` stands 1920 nM; under `Cc1[nH]c2ccccc2c1/C=N/Nc1ccc([N+](=O)[O-])cc1`, 9230 nM; under `CC(C)N1CCc2c(sc(NC(=O)c3ccc4ccccc4c3)c2C(N)=O)C1`, 13300 nM. In the case of `Cc1ccc(NC(=O)/C=C/c2ccc([N+](=O)[O-])s2)c(C)c1`, the AC40 was 1680 nM. For the compound `Cc1cccc(NC(=O)/C=C/c2ccc([N+](=O)[O-])s2)c1`, the AC40 was 1580 nM. `F[B-](F)(F)c1cnc2ccccc2c1`: the AC40 was > 6800 nM (inactive). Same read-out and setting: under `Nc1[nH]c2cc([N+](=O)[O-])ccc2c1-c1ccccn1` stands 4610 nM; under `COc1cc(NS(=O)(=O)c2ccc3ccccc3c2)c2ncccc2c1`, > 19500 nM (inactive).

As for `N#CC(C#N)=C1C=C2C=C(N3CCCCCC3)CCC2CC1` (stereo not drawn), the AC40 is 4000 nM.

Turning to `N#C/C(=C\c1ccc(N2CCCCC2)o1)C(=O)Nc1cccc(Br)c1`, the AC40 is 406 nM. On the same count and under the same terms, under `CCN(CC)c1ccc(/C=C/c2cc(-c3ccccc3)c3ccccc3n2)cc1` stands 1680 nM. On the same count and under the same terms, under `CCN1/C(=C/c2ccc3cc(C)ccc3[n+]2CC)Sc2ccccc21` stands 228 nM.

System in the next experiment: not listed separately
The experiment is described as above. The following applies: 68-5-11 mouse fibroblast XiGFP reporter, % GFP-positive imaging, 3 d; at 19.5 µM (top of the series); cells co-treated with 5-aza-dC sensitizer; scaled: neutral wells 0, ellipticine wells 100.
In the case of `NC(=S)Nc1ccc(Cl)cc1Cl`, the activation is -0.001% (inactive). On the same count and under the same terms, the result for `C=CCNC(=O)N[C@@H](Cc1ccccc1)C(=O)OC` reads -0.065% (inactive); that for `CCOC(=O)C1CCN(C(=O)c2ccc(NS(=O)(=O)c3ccc(F)cc3C)cc2)CC1`, 0.035% (inactive); that for `Nc1cc2c3c(cccc3c1)C(=O)N(CCN1CCCC1)C2=O`, -0.037% (inactive).

Regarding `COc1cccc(CNC(=O)CNC(=S)N(Cc2ccccc2)Cc2ccccc2F)c1`, the activation was -0.015% (inactive).

With `Cc1ccc(NCc2nnc(SCC(=O)NNC(=O)Cc3ccccc3)n2C)cc1`, the activation was 0.012% (inactive).

On to `CC(=O)OCCNc1cc(Sc2nc3ccccc3[nH]2)c2nonc2c1[N+](=O)[O-]`, for which the activation is -0.034% (inactive).

`COc1ccc(-c2nn(-c3ccccc3)cc2C(=O)NC(=S)Nc2cc(Cl)ccc2Cl)cc1`: the activation is 3.67% (inactive).

Consider `CC1CCCC(NC(=O)CSc2cccc[n+]2[O-])C1C` (stereo not drawn), for which the activation is 0.125% (inactive). Still for that read-out and setting: the result for `O=C(C[C@@H]1C[C@@H]2c3cc(NC(=O)C4CCC4)ccc3O[C@@H]2[C@@H](CO)O1)NCc1ccc(Cl)cc1` reads 0.899% (inactive); that for `O=C(CCl)N=c1sccn1Cc1cccc2ccccc12`, -0.053% (inactive); that for `Cc1ccc(Cl)cc1NC(=O)CCC(=O)O`, -0.002% (inactive).

In the case of `O=C(Nc1cccc(S(=O)(=O)NC2=NCCC2)c1)C1CC(=O)N(c2ccc3c(c2)OCCO3)C1` (stereo not drawn), the activation was 0.339% (inactive). The same measure, in the same setting: the result for `CCOC(=O)Nc1cc2c(c(N)n1)N=C(c1ccccc1)CN2` reads -0.053% (inactive). Still for that read-out and setting: the result for `CC(C)c1cc(C(=O)N/N=C/c2cccnc2)cs1` reads 0.54% (inactive); that for `Nc1ccccc1Nc1cc(-c2ccccc2)[nH]n1`, -0.047% (inactive). Still for that read-out and setting: under `Cc1onc(-c2c(Cl)cccc2Cl)c1-c1nc2cc(Cl)ccc2c(=O)o1` stands -0.032% (inactive); under `CCCCC(CCC(=O)Nc1ccn(-c2ccccc2)n1)C(=O)O` (stereo not drawn), 0% (inactive); under `COc1cccc(NC(=O)N(C)C[C@@H]2Oc3cc(Br)ccc3S(=O)(=O)N([C@@H](C)CO)C[C@H]2C)c1`, -0.016% (inactive). On to `O=C(CC1C(=O)Nc2ccccc2N1CC(=O)N1CCCC1)Nc1ccc(Br)cc1` (stereo not drawn), for which the activation is -0.001% (inactive). On the same count and under the same terms, the result for `CO[C@@H]1CN(C)C(=O)c2ccc(NC(=O)Nc3cccc(Cl)c3)cc2OC[C@H](C)N(C(=O)Nc2c(C)noc2C)C[C@H]1C` reads -0.002% (inactive); that for `COc1ccc(-n2nc(C#N)c(Cl)cc2=O)cc1`, 0.745% (inactive); that for `COc1ccc(S(=O)(=O)N(C)C[C@H]2Oc3ccc(NS(=O)(=O)c4ccc(F)cc4)cc3CC(=O)N([C@@H](C)CO)C[C@@H]2C)cc1`, 0.034% (inactive). The same measure, in the same setting: under `CC(=O)c1ccc(NS(=O)(=O)c2ccc(N/C=C/C(=O)c3ccc(F)cc3)cc2)cc1` stands 0.351% (inactive); under `Cn1c(=O)[nH]c(=O)c2c1nc1n2CCCN1Cc1ccccc1`, 0.106% (inactive). As for `Cc1ccc2c(COC(=O)C34CC5CC(CC(C5)C3)C4)cc(=O)oc2c1`, the activation was -0.07% (inactive). Same read-out and setting: under `CN(C)CCCNC(=O)/C(=C\c1ccc(-c2ccc(Br)cc2)o1)NC(=O)c1ccccc1` stands -0.053% (inactive); under `Oc1c(C(c2ccccc2Cl)N2CCCC2)ccc2cccnc12` (stereo not drawn), -0.035% (inactive).

On to `O=C(O)CSc1ncccn1`, for which the activation is -0.015% (inactive). On the same count and under the same terms, the result for `COc1cccc(CNC(=O)C(Cc2ccccc2)n2cccc2)c1` (stereo not drawn) reads 0.002% (inactive); that for `COc1ccc2c(c1)C(C)=CC(C)(C)N2S(=O)(=O)c1ccc(Br)cc1`, 0.373% (inactive). Regarding `COc1cc(/C=N/Nc2nc(N3CCCC3)nc(N3CCCC3)n2)ccc1OCc1ccccc1F`, the activation is 0.149% (inactive).

Take `CCc1ccc(CN(C)C(=O)c2cc(S(=O)(=O)N3CCOCC3)ccc2N2CCCC2)cc1`: the activation is -0.007% (inactive). Take `N/C(=N\c1nc(CSc2nc3ccccc3s2)cc(=O)[nH]1)Nc1ccc(F)cc1`: the activation was 8.8% (inactive). As to `Cc1ccccc1NC(=O)CN1C(=O)S/C(=C\c2ccc(-c3cc(C(=O)O)ccc3C)o2)C1=O`, the activation is 0.024% (inactive). With `O=C(COC(=O)/C=C/c1cccc(C(F)(F)F)c1)NC(=O)NCc1ccco1`, the activation is -0.07% (inactive). With `Cn1c(NC(=O)c2ccc(F)cc2)c(-c2ccccn2)c(=O)c2ccccc21`, the activation is 0.155% (inactive). Same read-out and setting: under `Oc1ccc(Cl)cc1C=Nc1ccc2c3c(cccc13)CC2` stands 0.039% (inactive); under `O=C(CCl)N=c1sccn1Cc1ccc(Cl)cc1Cl`, 0.591% (inactive). Same read-out and setting: under `CCOC(=O)c1nn(-c2ccc3ccccc3c2)cc1O` stands 0.359% (inactive).

As for `COc1ccc2c3c([nH]c2c1)[C@H](CO)N(C(=O)Nc1ccc(F)cc1)CC31CN(CC2CC2)C1`, the activation was -0.035% (inactive).

With `COc1ccc(-n2c(=O)n(Cc3ccccc3)c(=O)c3[nH]cnc32)cc1`, the activation was -0.053% (inactive).

As to `C[C@@H]1C[C@H]2[C@@H]3CCC4=CC(=O)C=C[C@]4(C)[C@@]3(F)[C@@H](O)C[C@]2(C)[C@H]1C(=O)CO`, the activation is 0.179% (inactive). For the compound `CC(NC(=O)c1ccccc1)C(=O)N/N=C/c1ccccc1` (stereo not drawn), the activation is 0.535% (inactive).

As to `CC(=O)NC(c1ccc(Cl)cc1)c1c(O)ccc2ccc(O)cc12` (stereo not drawn), the activation is 0.013% (inactive). On to `CCOC(=O)C1CCN(c2c(NCc3ccc(C(=O)NC4CCCC4)cc3)c(=O)c2=O)CC1`, for which the activation is -0.034% (inactive). On the same count and under the same terms, under `CNC(=O)C[C@H]1C(=O)N(c2ccccc2)C[C@@H]1C` stands 0.464% (inactive); under `CC1CC(C)CN(C(=O)CSCC(=O)Nc2nc(-c3cccs3)cs2)C1` (stereo not drawn), -0.047% (inactive). Consider `CN(CC(=O)Nc1ccc(Cl)c(Cl)c1)CC(=O)Nc1ccc2c(c1)OCO2`, for which the activation was -0.047% (inactive). Turning to `O=C1c2ccccc2C(=Cc2cccnc2)c2ccccc21`, the activation is 0.325% (inactive). In the case of `[N-]=[N+]=CC(=O)C(O)(c1ccccc1)C(Cl)c1ccccc1` (stereo not drawn), the activation was 0.034% (inactive).

Regarding `O=C(O)/C=C/C(=O)Nc1ccc(-n2nccc2C(F)(F)F)cc1`, the activation was 1.34% (inactive). The same measure, in the same setting: the result for `Cc1nn(-c2ccccc2)c2ncc(C(=O)c3cc(Cl)ccc3O)cc12` reads 0.1% (inactive); that for `CCCN(C)C[C@@H]1OCc2cnnn2CCCC(=O)N([C@H](C)CO)C[C@H]1C`, 1.19% (inactive); that for `O=C(Nc1cccc(C(=O)O)c1)/C(=C\c1ccccc1)NC(=O)c1ccc(Br)o1`, 0.02% (inactive). Same read-out and setting: the result for `CC(=NNC(=S)Nc1cccc(Cl)c1)c1ccccn1` reads -0.035% (inactive). On the same count and under the same terms, the result for `COC(=O)CCN1CCC(c2cc(-c3cccc(C(F)(F)F)c3)n[nH]2)CC1` reads 0.056% (inactive). For `Cc1ccc(NC(=O)c2cc(N3C(=O)C=CC3=O)ccc2N2CCOCC2)cc1Cl`, the activation is -0.024% (inactive). For `CCCCCCCCN1C(=O)[C@H](CC(=O)N2CCSCC2)C[C@@]2(C(=O)OCC)CCCC=C12`, the activation is 0.117% (inactive). Still for that read-out and setting: the result for `COC(=O)c1sc(-c2ccc(C(C)(C)C)cc2)cc1NC(=O)c1ccccc1C(=O)O` reads -0.053% (inactive).
